The record followed here is PubChem BioAssay (NCI).

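Five compound concentrations were applied to cells in 96-well plates for 48 hours; endpoints were derived by simple linear interpolation of the resulting dose-response curve. Here, GI50 denotes the concentration required for 50% inhibition of growth. TGI marks complete inhibition of growth.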

Test systems include A498 renal; HL-60(TB) leukemia; OVCAR-5 ovarian; SW-620 colon; CAKI-1 renal; SN12C renal; BT-549 breast; TK-10 renal; A549 NSCLC; SF-539 CNS.
What all share (test): DTP human tumour cell line panel, 48 h

The GI50 is the concentration that inhibits growth by half. A word on the TGI: it is the concentration at which net growth stops. A higher TGI goes with less potent growth arrest. In the case of `CNC(=O)c1cccc2cc(Oc3ccnc4cc(OCC5(N)CC5)c(OC)cc34)ccc12`, the GI50 with A498 renal was 0.167 µM; in the test on HL-60(TB) leukemia, 8.26 µM; in the test with OVCAR-5 ovarian, 6.94 µM; in the test with SW-620 colon, 5.96 µM; in the test with CAKI-1 renal it was 11.9 µM; in the test on SN12C renal it was 6.01 µM. The GI50 with BT-549 breast was 5.63 µM; in the test on TK-10 renal it was 12.9 µM; in the test with A549 NSCLC, 10.9 µM; in the test with SF-539 CNS, 0.403 µM. Besides, the TGI worked out at 3.12 µM with A498 renal; 26.3 µM in the test with HL-60(TB) leukemia; 19.3 µM in the test with OVCAR-5 ovarian; 20.5 µM with SW-620 colon; 25 µM in the test with CAKI-1 renal; 24.1 µM in the test with SN12C renal. In addition, the TGI came to 22.1 µM in the test on BT-549 breast, 26.6 µM in the test on TK-10 renal, 26.3 µM in the test with A549 NSCLC and 6.61 µM with SF-539 CNS.
As to `O=S(=O)(Nc1ccc(Br)c(Cl)c1)c1ccc(-c2cnc(C3CC3)o2)cc1`, the GI50 is 0.189 µM in the test on A498 renal; 0.303 µM with HL-60(TB) leukemia; 1.97 µM in the test on OVCAR-5 ovarian; 0.392 µM with SW-620 colon; 0.431 µM in the test with CAKI-1 renal; 1.27 µM with SN12C renal. The GI50 in the test with BT-549 breast was 0.682 µM; in the test on TK-10 renal, 2.89 µM; in the test on A549 NSCLC, 0.789 µM; in the test with SF-539 CNS, 0.374 µM. The TGI came out at 0.845 µM in the test on A498 renal; 4.96 µM in the test with HL-60(TB) leukemia; 14.1 µM in the test with OVCAR-5 ovarian; 15.4 µM in the test on SW-620 colon; 16.4 µM with CAKI-1 renal; 16 µM in the test on SN12C renal. For the same compound, the total growth inhibition concentration (TGI) in the test with BT-549 breast was determined as 17.8 µM; in the test with TK-10 renal it was 20.6 µM; in the test on A549 NSCLC, 18.3 µM; in the test with SF-539 CNS, 5.08 µM.
`COc1cc2oc3cc(=O)cc4oc(-c5ccccc5)cc(c2c2c1CCC(c1ccccc1)O2)c43` (stereo not given): the TGI in the test with A498 renal is more than 100 µM; with HL-60(TB) leukemia, 62.7 µM; in the test on OVCAR-5 ovarian, more than 100 µM; with SW-620 colon it was more than 100 µM; in the test on CAKI-1 renal, more than 100 µM; with SN12C renal it was more than 100 µM. In addition, the TGI in the test with BT-549 breast was more than 100 µM; in the test on TK-10 renal, 83.4 µM; in the test on A549 NSCLC it was more than 100 µM; in the test with SF-539 CNS, more than 100 µM.
In the case of `c1cc2n(n1)CCN2`, the TGI is 6270 µM in the test with A498 renal; 5150 µM in the test on HL-60(TB) leukemia; more than 10000 µM in the test with OVCAR-5 ovarian; more than 10000 µM in the test on SW-620 colon; 4680 µM in the test on CAKI-1 renal; 7050 µM in the test with SN12C renal. Moreover, the concentration for total growth inhibition (TGI) in the test with BT-549 breast was more than 10000 µM; with TK-10 renal, more than 10000 µM; in the test on A549 NSCLC it was 8580 µM; with SF-539 CNS, 4990 µM.
For the compound `COc1cc(Nc2c(C#N)cnc3cc(OCCCN4CCN(C)CC4)c(OC)cc23)c(Cl)cc1Cl`, the GI50 in the test on A498 renal is 0.586 µM; with HL-60(TB) leukemia, 1.59 µM; in the test on OVCAR-5 ovarian, 1.19 µM; with SW-620 colon it was 3.26 µM; in the test on CAKI-1 renal, 0.482 µM; in the test with SN12C renal it was 0.308 µM. The GI50 with BT-549 breast was 6.78 µM; in the test on TK-10 renal it was 0.469 µM; in the test on A549 NSCLC, 2.74 µM; with SF-539 CNS, 2.3 µM. In addition, the TGI in the test on A498 renal was found to be 2.22 µM; in the test on HL-60(TB) leukemia, 3.63 µM; in the test with OVCAR-5 ovarian it was 16.2 µM; in the test on SW-620 colon it was 11.4 µM; with CAKI-1 renal it was 5.13 µM; in the test with SN12C renal, 14.4 µM. Further, the TGI with BT-549 breast came out at 18.3 µM; with TK-10 renal, 11.3 µM; in the test on A549 NSCLC it was 13.5 µM; in the test with SF-539 CNS, 5.83 µM.
In the case of `C=C1/C(=C\C=C2/CCC[C@]3(C)[C@@H]([C@H](C)CCCC(C)(C)O)CC[C@@H]23)C[C@@H](OC(=O)CBr)C[C@@H]1O`, the GI50 in the test on A498 renal is 0.469 µM; with HL-60(TB) leukemia it was 0.3 µM; in the test on OVCAR-5 ovarian, 1.55 µM; in the test on SW-620 colon it was 1.78 µM; with CAKI-1 renal it was 3.19 µM; with SN12C renal, 4.93 µM. Moreover, the GI50 is 1.96 µM in the test with BT-549 breast, 6.88 µM in the test with TK-10 renal, 6.26 µM in the test with A549 NSCLC and 0.212 µM in the test on SF-539 CNS. Moreover, the TGI in the test with A498 renal is 3.17 µM; in the test with HL-60(TB) leukemia it was 1.09 µM; with OVCAR-5 ovarian it was 19.3 µM; in the test with SW-620 colon, 3.96 µM; with CAKI-1 renal, 15.8 µM; with SN12C renal it was 11.9 µM. Moreover, the TGI in the test on BT-549 breast came to 4.36 µM; in the test with TK-10 renal, 21.6 µM; in the test with A549 NSCLC, 31.5 µM; with SF-539 CNS, 0.629 µM.
For the compound `CNCCCn1c2c(c3ccc([N+](=O)[O-])cc3c1=O)C(=O)c1cc(OC)cnc1-2`, the GI50 was 0.0338 µM in the test on A498 renal; 0.0413 µM in the test on HL-60(TB) leukemia; 0.135 µM in the test on OVCAR-5 ovarian; 0.0349 µM in the test with SW-620 colon; 0.0346 µM in the test with CAKI-1 renal; 0.0461 µM in the test on SN12C renal. In addition, the GI50 in the test on BT-549 breast was 0.373 µM; in the test on TK-10 renal, 0.317 µM; in the test with A549 NSCLC, 0.0696 µM; in the test with SF-539 CNS it was 0.0505 µM. In addition, the TGI in the test with A498 renal was 0.276 µM; in the test with HL-60(TB) leukemia it was 0.921 µM; in the test on OVCAR-5 ovarian it was 0.882 µM; with SW-620 colon, 1.12 µM; with CAKI-1 renal, 0.342 µM; in the test on SN12C renal, 1.2 µM. The TGI in the test on BT-549 breast was 2.56 µM; in the test with TK-10 renal, 1.5 µM; with A549 NSCLC it was 0.359 µM; in the test on SF-539 CNS, 0.567 µM.
Regarding `Cc1ccc(C(CC(=O)c2ccccc2)C2C(=O)NC(=O)NC2=O)cc1` (stereo not given), the GI50 in the test on A498 renal, in the test with HL-60(TB) leukemia, with OVCAR-5 ovarian, with SW-620 colon, in the test on CAKI-1 renal and in the test on SN12C renal was more than 100 µM throughout. In addition, the GI50 in the test with BT-549 breast, with TK-10 renal, in the test with A549 NSCLC and with SF-539 CNS was more than 100 µM throughout. Further, the TGI with A498 renal, with HL-60(TB) leukemia, in the test with OVCAR-5 ovarian, in the test with SW-620 colon, in the test with CAKI-1 renal and in the test with SN12C renal was more than 100 µM throughout. Further, the TGI with BT-549 breast, in the test with TK-10 renal, in the test on A549 NSCLC and in the test with SF-539 CNS was more than 100 µM in each case.
